This note sets out measurements from ChEMBL document CHEMBL5291721, “A preclinical secondary pharmacology resource illuminates target-adverse drug reaction associations of marketed drugs” (Nat Commun, 2023).

As a reminder, the AC50 is the concentration giving half of the maximal activity seen. High values mean weaker potency, low ones greater potency.

In test [1] the target is Beta-1 adrenergic receptor (Homo sapiens, UniProt P08588). Format: functional, cell-based.
Test [2] concerns the target Sodium channel protein type 5 subunit alpha (Homo sapiens, UniProt Q14524). Format: functional, cell-based.
In another test the target is Cannabinoid receptor 1 (Homo sapiens, UniProt P21554). Format: functional.
Sequence of Cannabinoid receptor 1 (P21554 whole entry): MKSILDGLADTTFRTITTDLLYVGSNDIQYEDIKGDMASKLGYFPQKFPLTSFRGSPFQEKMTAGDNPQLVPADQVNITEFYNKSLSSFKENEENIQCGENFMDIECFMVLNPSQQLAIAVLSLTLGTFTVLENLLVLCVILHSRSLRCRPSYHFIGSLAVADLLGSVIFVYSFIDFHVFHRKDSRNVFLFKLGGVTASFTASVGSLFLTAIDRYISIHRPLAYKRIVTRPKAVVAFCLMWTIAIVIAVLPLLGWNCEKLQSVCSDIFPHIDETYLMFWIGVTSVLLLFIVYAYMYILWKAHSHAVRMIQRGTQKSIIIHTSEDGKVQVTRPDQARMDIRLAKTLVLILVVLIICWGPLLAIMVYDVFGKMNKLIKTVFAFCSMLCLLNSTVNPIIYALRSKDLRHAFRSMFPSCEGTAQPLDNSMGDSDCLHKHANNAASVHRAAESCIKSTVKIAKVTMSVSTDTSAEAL
Test [3] has as its target T1, Gastric inhibitory polypeptide receptor (Homo sapiens, UniProt P48546).
T1 sequence (P48546 whole entry): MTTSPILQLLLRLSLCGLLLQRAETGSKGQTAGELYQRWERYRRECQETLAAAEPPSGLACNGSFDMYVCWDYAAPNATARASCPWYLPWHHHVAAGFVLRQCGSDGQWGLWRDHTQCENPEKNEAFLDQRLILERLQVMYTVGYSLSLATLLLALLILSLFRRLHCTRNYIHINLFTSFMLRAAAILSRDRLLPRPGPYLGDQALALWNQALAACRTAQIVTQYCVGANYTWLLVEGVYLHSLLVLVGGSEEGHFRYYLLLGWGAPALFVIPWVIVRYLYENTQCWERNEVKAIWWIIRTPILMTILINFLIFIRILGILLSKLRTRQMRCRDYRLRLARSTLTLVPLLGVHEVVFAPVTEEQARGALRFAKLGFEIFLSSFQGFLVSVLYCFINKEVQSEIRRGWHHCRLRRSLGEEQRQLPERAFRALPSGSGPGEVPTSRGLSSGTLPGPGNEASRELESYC

Another test has as its target T2, D(4) dopamine receptor (Homo sapiens, UniProt P21917).
T2 sequence (P21917 whole entry): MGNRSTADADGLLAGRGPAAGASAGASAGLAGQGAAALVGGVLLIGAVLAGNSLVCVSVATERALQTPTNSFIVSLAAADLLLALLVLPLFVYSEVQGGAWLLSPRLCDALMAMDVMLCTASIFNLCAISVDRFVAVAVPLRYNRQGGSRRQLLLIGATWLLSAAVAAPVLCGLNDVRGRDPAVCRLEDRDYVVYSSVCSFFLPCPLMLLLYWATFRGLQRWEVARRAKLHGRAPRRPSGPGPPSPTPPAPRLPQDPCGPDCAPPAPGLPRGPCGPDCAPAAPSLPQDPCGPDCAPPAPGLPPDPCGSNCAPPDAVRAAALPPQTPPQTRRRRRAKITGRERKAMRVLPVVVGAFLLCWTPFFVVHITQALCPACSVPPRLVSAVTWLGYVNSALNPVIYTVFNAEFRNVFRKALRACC

A further test concerns the target Estrogen receptor beta (Homo sapiens, UniProt Q92731).
A further test addresses T3, B1 bradykinin receptor (Homo sapiens, UniProt P46663).
T3 sequence (P46663 whole entry): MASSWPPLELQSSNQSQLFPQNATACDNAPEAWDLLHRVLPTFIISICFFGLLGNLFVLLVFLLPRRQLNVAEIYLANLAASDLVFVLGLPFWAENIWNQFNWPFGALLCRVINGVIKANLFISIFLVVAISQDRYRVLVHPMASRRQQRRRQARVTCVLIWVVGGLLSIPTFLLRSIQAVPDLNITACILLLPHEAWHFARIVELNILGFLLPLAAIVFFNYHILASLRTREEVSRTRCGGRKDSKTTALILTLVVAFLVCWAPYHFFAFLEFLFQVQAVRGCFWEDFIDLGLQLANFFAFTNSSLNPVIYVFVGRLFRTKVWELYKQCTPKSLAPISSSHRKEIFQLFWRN

Test [4] has as its target T4, Corticotropin-releasing factor receptor 1 (Homo sapiens, UniProt P34998).
T4 sequence (P34998 whole entry): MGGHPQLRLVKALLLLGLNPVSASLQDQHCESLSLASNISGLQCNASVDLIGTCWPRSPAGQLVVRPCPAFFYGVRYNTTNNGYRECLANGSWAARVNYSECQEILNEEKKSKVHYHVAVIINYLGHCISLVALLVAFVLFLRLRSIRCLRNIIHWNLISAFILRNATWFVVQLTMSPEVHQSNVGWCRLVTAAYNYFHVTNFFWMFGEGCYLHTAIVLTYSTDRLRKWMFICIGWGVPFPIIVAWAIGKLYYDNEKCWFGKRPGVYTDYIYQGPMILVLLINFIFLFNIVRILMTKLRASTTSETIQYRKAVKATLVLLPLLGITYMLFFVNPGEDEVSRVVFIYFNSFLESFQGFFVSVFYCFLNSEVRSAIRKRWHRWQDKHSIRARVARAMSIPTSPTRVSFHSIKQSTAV

Test [5] addresses T5, Neuropeptide Y receptor type 2 (Homo sapiens, UniProt P49146).
T5 sequence (P49146 whole entry): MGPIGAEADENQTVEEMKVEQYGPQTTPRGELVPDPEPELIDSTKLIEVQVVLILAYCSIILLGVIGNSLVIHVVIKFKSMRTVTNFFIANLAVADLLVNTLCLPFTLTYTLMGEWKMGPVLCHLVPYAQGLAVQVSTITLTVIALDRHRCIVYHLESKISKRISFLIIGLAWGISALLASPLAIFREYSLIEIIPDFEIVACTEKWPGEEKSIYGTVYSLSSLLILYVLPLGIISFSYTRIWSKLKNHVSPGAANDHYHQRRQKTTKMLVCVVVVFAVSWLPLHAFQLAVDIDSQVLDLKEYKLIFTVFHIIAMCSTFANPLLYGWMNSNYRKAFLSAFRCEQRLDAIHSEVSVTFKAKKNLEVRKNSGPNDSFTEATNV

For test [6], the target named is 5-hydroxytryptamine receptor 6 (Homo sapiens, UniProt P50406).
Sequence of 5-hydroxytryptamine receptor 6 (P50406 whole entry): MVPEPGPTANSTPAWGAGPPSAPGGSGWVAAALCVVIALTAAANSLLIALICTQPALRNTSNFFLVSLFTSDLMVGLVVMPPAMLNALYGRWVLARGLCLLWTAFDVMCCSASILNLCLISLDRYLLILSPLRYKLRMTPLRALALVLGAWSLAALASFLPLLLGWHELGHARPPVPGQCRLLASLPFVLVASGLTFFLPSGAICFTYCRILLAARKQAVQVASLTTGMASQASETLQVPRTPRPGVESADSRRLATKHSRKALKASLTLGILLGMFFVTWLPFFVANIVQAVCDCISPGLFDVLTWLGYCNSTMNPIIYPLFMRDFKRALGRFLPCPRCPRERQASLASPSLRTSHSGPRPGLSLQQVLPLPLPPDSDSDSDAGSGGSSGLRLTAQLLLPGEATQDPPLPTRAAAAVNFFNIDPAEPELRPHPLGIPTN
Test [7] addresses 5-hydroxytryptamine receptor 2B (Homo sapiens, UniProt P41595).
Test [8] deals with T6, Muscarinic acetylcholine receptor M2 (Homo sapiens, UniProt P08172).
T6 sequence (P08172 whole entry): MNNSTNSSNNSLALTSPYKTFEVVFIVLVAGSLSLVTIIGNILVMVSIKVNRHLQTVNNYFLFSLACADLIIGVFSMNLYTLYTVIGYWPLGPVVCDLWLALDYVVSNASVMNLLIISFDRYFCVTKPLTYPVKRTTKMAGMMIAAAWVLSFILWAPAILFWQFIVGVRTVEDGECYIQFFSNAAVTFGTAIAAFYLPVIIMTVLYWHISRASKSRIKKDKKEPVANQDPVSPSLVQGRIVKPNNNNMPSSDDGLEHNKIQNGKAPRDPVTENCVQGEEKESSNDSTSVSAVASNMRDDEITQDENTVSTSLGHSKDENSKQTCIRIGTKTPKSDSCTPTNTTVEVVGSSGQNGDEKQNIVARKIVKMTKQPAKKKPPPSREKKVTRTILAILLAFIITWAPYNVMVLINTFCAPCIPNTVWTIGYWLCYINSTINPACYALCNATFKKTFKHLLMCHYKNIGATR
Note: assay procedure not described here.

Sequence of Sodium channel protein type 5 subunit alpha (Q14524 whole entry): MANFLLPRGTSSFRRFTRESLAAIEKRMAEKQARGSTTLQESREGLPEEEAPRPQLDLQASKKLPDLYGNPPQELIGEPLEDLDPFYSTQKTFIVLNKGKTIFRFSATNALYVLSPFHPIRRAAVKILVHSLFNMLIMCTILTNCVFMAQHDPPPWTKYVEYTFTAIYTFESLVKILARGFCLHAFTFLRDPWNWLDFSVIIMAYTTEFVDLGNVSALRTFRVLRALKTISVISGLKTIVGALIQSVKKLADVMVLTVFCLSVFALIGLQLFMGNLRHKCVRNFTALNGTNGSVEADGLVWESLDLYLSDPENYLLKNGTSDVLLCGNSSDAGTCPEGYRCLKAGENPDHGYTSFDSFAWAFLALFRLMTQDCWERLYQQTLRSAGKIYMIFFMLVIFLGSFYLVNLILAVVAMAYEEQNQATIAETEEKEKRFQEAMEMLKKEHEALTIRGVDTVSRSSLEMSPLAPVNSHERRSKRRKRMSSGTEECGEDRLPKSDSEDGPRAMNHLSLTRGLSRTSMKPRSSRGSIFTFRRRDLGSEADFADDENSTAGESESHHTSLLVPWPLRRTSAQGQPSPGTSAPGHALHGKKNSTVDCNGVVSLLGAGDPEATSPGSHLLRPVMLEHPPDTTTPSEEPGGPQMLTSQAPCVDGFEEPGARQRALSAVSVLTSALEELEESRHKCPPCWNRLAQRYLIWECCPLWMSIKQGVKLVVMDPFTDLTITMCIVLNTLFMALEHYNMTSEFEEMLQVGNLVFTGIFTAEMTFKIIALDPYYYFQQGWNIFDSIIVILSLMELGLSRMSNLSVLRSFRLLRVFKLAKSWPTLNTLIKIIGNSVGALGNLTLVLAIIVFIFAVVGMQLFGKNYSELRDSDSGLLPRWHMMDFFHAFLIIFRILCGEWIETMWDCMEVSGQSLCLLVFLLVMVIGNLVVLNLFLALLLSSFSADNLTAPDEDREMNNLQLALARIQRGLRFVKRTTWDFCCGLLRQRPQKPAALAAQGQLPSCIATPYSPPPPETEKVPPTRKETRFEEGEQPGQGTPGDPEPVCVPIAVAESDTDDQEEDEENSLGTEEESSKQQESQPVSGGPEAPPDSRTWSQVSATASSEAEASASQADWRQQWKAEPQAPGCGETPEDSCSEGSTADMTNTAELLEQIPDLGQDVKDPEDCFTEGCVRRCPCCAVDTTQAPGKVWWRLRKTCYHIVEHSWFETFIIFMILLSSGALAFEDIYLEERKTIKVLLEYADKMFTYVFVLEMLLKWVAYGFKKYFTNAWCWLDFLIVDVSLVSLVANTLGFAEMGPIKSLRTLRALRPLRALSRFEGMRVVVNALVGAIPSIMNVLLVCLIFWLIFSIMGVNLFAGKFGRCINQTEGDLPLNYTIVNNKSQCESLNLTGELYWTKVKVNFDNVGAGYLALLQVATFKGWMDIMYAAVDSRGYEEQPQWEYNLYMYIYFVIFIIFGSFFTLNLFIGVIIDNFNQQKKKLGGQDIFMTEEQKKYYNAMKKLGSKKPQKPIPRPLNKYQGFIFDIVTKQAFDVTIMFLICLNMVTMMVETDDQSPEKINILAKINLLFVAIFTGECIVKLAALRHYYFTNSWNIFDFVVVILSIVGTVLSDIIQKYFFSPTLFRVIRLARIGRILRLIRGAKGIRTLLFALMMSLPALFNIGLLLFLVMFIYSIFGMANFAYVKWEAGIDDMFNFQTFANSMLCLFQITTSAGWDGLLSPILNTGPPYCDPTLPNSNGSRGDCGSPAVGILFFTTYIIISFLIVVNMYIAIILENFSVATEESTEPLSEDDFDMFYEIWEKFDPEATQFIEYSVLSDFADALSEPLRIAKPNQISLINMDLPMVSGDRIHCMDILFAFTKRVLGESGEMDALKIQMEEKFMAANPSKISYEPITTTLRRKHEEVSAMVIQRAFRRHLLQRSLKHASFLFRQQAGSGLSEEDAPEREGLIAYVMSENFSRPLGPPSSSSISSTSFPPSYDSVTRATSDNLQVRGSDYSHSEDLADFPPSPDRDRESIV
Sequence of Estrogen receptor beta (Q92731 whole entry): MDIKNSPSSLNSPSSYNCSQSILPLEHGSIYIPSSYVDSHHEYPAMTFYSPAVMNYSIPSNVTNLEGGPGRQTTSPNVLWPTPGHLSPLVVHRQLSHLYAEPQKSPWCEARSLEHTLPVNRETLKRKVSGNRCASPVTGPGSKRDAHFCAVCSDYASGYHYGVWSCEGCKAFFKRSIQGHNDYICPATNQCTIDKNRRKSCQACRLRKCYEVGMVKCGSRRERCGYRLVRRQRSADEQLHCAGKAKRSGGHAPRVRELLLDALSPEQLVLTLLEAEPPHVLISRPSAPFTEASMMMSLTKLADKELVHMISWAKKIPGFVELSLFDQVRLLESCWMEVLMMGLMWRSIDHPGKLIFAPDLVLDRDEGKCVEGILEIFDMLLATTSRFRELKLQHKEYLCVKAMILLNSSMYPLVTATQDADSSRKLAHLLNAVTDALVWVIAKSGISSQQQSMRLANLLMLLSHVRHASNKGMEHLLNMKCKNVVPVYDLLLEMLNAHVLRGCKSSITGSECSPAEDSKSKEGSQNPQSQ
Sequence of 5-hydroxytryptamine receptor 2B (P41595 whole entry): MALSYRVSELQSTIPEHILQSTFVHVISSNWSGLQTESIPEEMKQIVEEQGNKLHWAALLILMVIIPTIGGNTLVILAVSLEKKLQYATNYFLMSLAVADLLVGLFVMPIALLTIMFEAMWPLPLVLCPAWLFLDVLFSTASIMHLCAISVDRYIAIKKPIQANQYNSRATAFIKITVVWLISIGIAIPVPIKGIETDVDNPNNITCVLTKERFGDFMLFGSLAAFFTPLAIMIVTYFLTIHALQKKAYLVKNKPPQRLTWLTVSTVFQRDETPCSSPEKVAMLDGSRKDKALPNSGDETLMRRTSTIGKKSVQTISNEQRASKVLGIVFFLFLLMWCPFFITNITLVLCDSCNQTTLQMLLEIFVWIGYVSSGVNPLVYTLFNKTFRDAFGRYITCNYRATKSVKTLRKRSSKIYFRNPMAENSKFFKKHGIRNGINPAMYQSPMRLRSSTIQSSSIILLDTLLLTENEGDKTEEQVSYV
Sequence of Beta-1 adrenergic receptor (P08588 whole entry): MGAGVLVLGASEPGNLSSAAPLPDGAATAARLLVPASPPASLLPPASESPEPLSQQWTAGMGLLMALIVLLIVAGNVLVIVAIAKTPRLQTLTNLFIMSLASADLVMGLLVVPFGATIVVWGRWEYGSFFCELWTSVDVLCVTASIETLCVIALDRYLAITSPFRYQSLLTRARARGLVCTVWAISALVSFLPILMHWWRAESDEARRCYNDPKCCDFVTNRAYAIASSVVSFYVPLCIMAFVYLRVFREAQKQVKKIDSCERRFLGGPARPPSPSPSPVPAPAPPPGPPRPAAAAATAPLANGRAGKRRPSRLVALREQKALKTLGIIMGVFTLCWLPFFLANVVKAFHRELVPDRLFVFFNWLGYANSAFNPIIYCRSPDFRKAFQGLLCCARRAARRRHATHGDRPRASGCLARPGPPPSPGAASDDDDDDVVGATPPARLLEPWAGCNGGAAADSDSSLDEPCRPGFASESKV

As to `N=C(N)NCCCCCCC(=O)NC(O)C(=O)NCCCCNCCCN` (centres undefined), the AC50 in test [1] was above 30 µM.

Consider `NCCCC(O)(P(=O)(O)O)P(=O)(O)O` [ALENDRONIC ACID], for which the AC50 is above 30 µM in test [2]; above 10 µM at Cannabinoid receptor 1; above 30 µM in [3]; above 10 µM on D(4) dopamine receptor; above 30 µM on Estrogen receptor beta; above 30 µM on B1 bradykinin receptor. The values for the concentration at half-maximal activity (AC50) in [4], in [5] and in [6] were above 30 µM, above 30 µM and above 10 µM, respectively.

In the case of `CCCC(C)(COC(N)=O)COC(=O)NC(C)C` (centres undefined) [CARISOPRODOL], the concentration at half-maximal activity (AC50) was above 30 µM in test [3]; above 10 µM at D(4) dopamine receptor; above 10 µM in [7]; above 30 µM on B1 bradykinin receptor; above 30 µM in [4]; above 30 µM in test [5]. The AC50 in test [8] was above 10 µM.

Consider `COCCOC(=O)C1=C(C)NC(C)=C(C(=O)OC/C=C/c2ccccc2)C1c1cccc([N+](=O)[O-])c1` (centres undefined) [CILNIDIPINE], for which the AC50 in test [2] was above 50 µM.

As for `N[C@H](Cc1cc(I)c(Oc2cc(I)c(O)c(I)c2)c(I)c1)C(=O)O` [DEXTROTHYROXINE], the half-maximal activity concentration (AC50) in test [3] is above 30 µM; on Estrogen receptor beta it was above 30 µM; in [7], above 10 µM; at B1 bradykinin receptor, above 30 µM; in test [4], above 30 µM; in test [5] it was above 30 µM. Further, the AC50 in test [8] is above 10 µM.

`COC(=O)N[C@@H](C)CNc1nccc(-c2cn(C(C)C)nc2-c2cc(Cl)cc(NS(C)(=O)=O)c2F)n1` [ENCORAFENIB] returned an AC50 in test [2] above 30 µM.

Consider `CCCN(CC)C(CC)C(=O)Nc1c(C)cccc1C` (centres undefined) [ETIDOCAINE], for which, in test [2], half-maximal activity (AC50) was put at 28 µM.

Regarding `CC(=O)OCC(CCn1cnc2cnc(N)nc21)COC(C)=O` [FAMCICLOVIR], the AC50 in test [3] is above 30 µM; on D(4) dopamine receptor, above 10 µM; on Estrogen receptor beta, above 30 µM; in test [7], above 10 µM; on B1 bradykinin receptor, above 30 µM; in [4], above 30 µM. Moreover, the half-maximal activity concentration (AC50) was above 30 µM in test [5] and above 10 µM in test [8].

Turning to `O=C(O)c1ccccc1Nc1cccc(C(F)(F)F)c1` [FLUFENAMIC ACID], the AC50 (in test [3]; at Estrogen receptor beta; at B1 bradykinin receptor; in [4]; in test [5]) was above 30 µM each time.

Regarding `COC1=C(OC)C(=O)C(CCCCCCCCCCO)=C(C)C1=O` [IDEBENONE], the AC50 was above 10 µM on Cannabinoid receptor 1; above 30 µM in test [3]; above 10 µM at D(4) dopamine receptor; above 30 µM on Estrogen receptor beta; 8.99 µM in [7]; above 30 µM on B1 bradykinin receptor. Moreover, the AC50 in test [4] is above 30 µM; in test [5], above 30 µM; in test [8] it was above 10 µM; in test [6], above 10 µM.

As for `CC#CCn1c(N2CCC[C@@H](N)C2)nc2c1c(=O)n(Cc1nc(C)c3ccccc3n1)c(=O)n2C` [LINAGLIPTIN], the AC50 is above 150 µM in test [2], above 10 µM in test [7] and above 10 µM in test [8].

On to `Cc1ccc(NC(=O)C2(c3ccc4c(c3)OC(F)(F)O4)CC2)nc1-c1cccc(C(=O)O)c1` [LUMACAFTOR], for which, in test [2], the concentration at half-maximal activity (AC50) is above 50 µM.

For `O=C1CN=C(c2ccccc2)c2cc(Cl)ccc2N1` [NORDAZEPAM], the AC50 was 0.0006 µM at Cannabinoid receptor 1; above 30 µM in test [3]; above 10 µM at D(4) dopamine receptor; above 30 µM on Estrogen receptor beta; above 10 µM in test [7]; above 30 µM on B1 bradykinin receptor. The AC50 in test [4] is above 30 µM; in [5], above 30 µM; in [8], above 10 µM; in test [6], above 10 µM.

Turning to `CC(CCc1ccccc1)NC(C)C(O)c1ccc(O)cc1` (centres undefined) [NYLIDRIN], the AC50 at Cannabinoid receptor 1 is above 10 µM; in test [3], above 30 µM; on D(4) dopamine receptor, above 10 µM; in test [7], 0.733 µM; on B1 bradykinin receptor, above 30 µM; in test [4] it was above 30 µM. Also, the figures for the AC50 in test [5], in test [8] and in test [6] were above 30 µM, above 10 µM and above 10 µM, respectively.

Regarding `O=C1Nc2ccc(Cl)cc2C(c2ccccc2)=NC1O` (centres undefined) [OXAZEPAM], the concentration at half-maximal activity (AC50) at Cannabinoid receptor 1 is above 10 µM; in test [3] it was above 30 µM; on D(4) dopamine receptor, above 10 µM; at Estrogen receptor beta, above 30 µM; at B1 bradykinin receptor, above 30 µM; in test [4] it was above 30 µM. Moreover, the values for the AC50 in [5], in test [8] and in test [6] were above 30 µM, above 10 µM and above 10 µM, respectively.

In test [2], `Cc1ccc(=O)n(-c2ccccc2)c1` [PIRFENIDONE] showed an AC50 above 50 µM.

Take `CC(C)CC(N(C)C)C1(c2ccc(Cl)cc2)CCC1` (centres undefined) [SIBUTRAMINE]: the half-maximal activity concentration (AC50) was above 30 µM in [3]; above 10 µM on D(4) dopamine receptor; above 30 µM at Estrogen receptor beta; above 30 µM on B1 bradykinin receptor; above 30 µM in test [4]; above 30 µM in [5]. Also, in test [8], the AC50 was above 10 µM.

For `[H]/N=C(/N)N[C@H]1[C@H](O)[C@@H](O)[C@H](O[C@@H]2O[C@@H](C)[C@](O)(C=O)[C@H]2O[C@@H]2O[C@@H](CO)[C@H](O)[C@@H](O)[C@@H]2NC)[C@@H](N/C(N)=N\[H])[C@@H]1O` [STREPTOMYCIN], the AC50 at Cannabinoid receptor 1 is above 10 µM; in test [3], above 30 µM; at D(4) dopamine receptor it was above 10 µM; on Estrogen receptor beta, above 30 µM; in test [7], above 10 µM; at B1 bradykinin receptor, above 30 µM. Moreover, the concentration at half-maximal activity (AC50) in test [4] is above 30 µM; in test [5], above 30 µM; in test [6], above 10 µM.

Regarding `N#C[C@@H]1CCCN1C(=O)CNC12CC3CC(CC(O)(C3)C1)C2` [VILDAGLIPTIN], the AC50 (on Cannabinoid receptor 1; on D(4) dopamine receptor; in test [7]; in test [8]; in [6]) was above 10 µM throughout.
